Data set [1] is described as follows: Acute toxicity in mice (oral or intraperitoneal single dose). To be noted: mouse, in vivo, observed at least one week. Here is the method:
Each compound was administered orally or intraperitoneally as a single dose.

Data set [2] has as its system palpebral ptosis induced by a reserpine injection. The data set can be described thus: Antidepressant activity: antagonism of palpebral ptosis induced by reserpine injection. To be noted: Mus musculus; mice, oral, one hour prior to reserpine 2 mg/kg ip; recorded hourly for 3 hours (Rubin's scale); read-out: ptosis reserpine ED50 (dosage which inhibits palpebral ptosis by 50%). It counts as in vivo. Here is the method: The antidepressant activity of each compound was evaluated in mice from its ability to antagonize palpebral ptosis induced by a reserpine injection. The different materials were administered orally, as a preventive treatment, one hour prior to intraperitoneal injection of reserpine (2 mg/kg). The intensity of the palpebral ptosis was then recorded at hourly intervals, for a period of time of 3 hours, according to a semi-quantitative scale (Rubin's scale). The test materials were administered at several dosage levels and, for most of them, the 50% efficient dosage (ED50) which inhibits palpebral ptosis by a factor of 50% could be evaluated.

Data set [3] has as its system peripheral and central cholinergic effects of oxotremorine. The data set can be described thus: Atropine activity: effect on peripheral and central cholinergic effects of oxotremorine. Format: in vivo. As to conditions: 100 mg/kg oral, 60 minutes prior to subcutaneous oxotremorine 2 mg/kg. As for the experimental part: In view of the detrimental atropine-like side-effect of the conventional antidepressants, this potential property was systematically investigated in the compounds of the formula (I).
The different materials were administered orally 60 minutes prior to subcutaneous oxotremorine injection at a dosage of 2 mg/kg.
15 minutes, and then 30 and 45 minutes after injection of the cholinergic agent, the various symptoms reflecting a parasympathetic stimulation were evaluated according to a semi-quantitative arbitrary scale (from 0 to 4).
peripheral cholinergic stimulation symptoms: tearfulness, salivation;
central cholinergic stimulation: trembling, Straub's phenomenon.

A further data set concerns cardiovascular system. The data set can be described thus: Effects on the cardiovascular system in dogs. It counts as in vivo. As to conditions: intravenous, 0.1 mg/kg to 10 mg/kg. As for the experimental part: The compounds of the formula (I) were administered intravenously in dogs, at dosages from 0.1 mg/kg to 10 mg/kg. The changes of blood pressure, of the femoral arterial rate, of vascular resistance subsequent to said injections were recorded.

[4] abbreviates: ip, intraperitoneal, read-out: LD50 ip.

Each structure is given as a SMILES string. Like-named read-outs stand apart in the source and are kept apart here.

Usually LD50 stands for the dose at which mortality reaches 50%. For orientation: ED50 means the midpoint of the dose-response relation. For the compound `CC1N=C2CC(c3ccccc3)CN2C1=O` (racemic) [Example 1], the 50% lethal dose (LD50) is > 200 mg/kg in data set [1] (setting [4]) and > 200 mg/kg in data set [1] (oral, read-out: LD50 po). Moreover, the 50% effective dose (ED50) in data set [2] was ~33 mg/kg.
With `CC(C)C1N=C2CC(c3ccccc3)CN2C1=O` (racemic) [Example 2], the LD50 in data set [1] (setting [4]) was > 200 mg/kg; in data set [1] (oral, read-out: LD50 po), > 200 mg/kg. Moreover, the median effective dose (ED50) in data set [2] was > 30 mg/kg.
`O=C1C(c2ccccc2)N=C2CC(c3ccccc3)CN12` (racemic) [Example 3]: the LD50 in data set [1] (setting [4]) was > 200 mg/kg; in data set [1] (oral, read-out: LD50 po) it was > 200 mg/kg. The 50% effective dose (ED50) in data set [2] was ~30 mg/kg.
Turning to `CC(C)C1N=C2CCC(c3ccccc3)CN2C1=O` (racemic) [Example 10], the “inhibitor activity on cholinergic effects of oxotremorine” value in data set [3] was “slight inhibitor activity”. Moreover, the 50% lethal dose (LD50) in data set [1] (setting [4]) is > 200 mg/kg; in data set [1] (oral, read-out: LD50 po), > 200 mg/kg. The ED50 in data set [2] is ~100 mg/kg.
Take `O=C1C(Cc2ccccc2)N=C2CC(c3ccccc3)CN12` (stereo not shown) [Example 4]: the 50% lethal dose (LD50) was < 200 mg/kg in data set [1] (setting [4]) and > 200 mg/kg in data set [1] (oral, read-out: LD50 po). In data set [2], the ED50 was < 30 mg/kg.
Regarding `CCOC(=O)C1N=C2CC(c3ccccc3)CN2C1=O` (stereo not shown) [Example 5], the vasoconstrictive action result with cardiovascular system is on record as “slightly vasoconstrictive”. The LD50 in data set [1] (setting [4]) was > 200 mg/kg; in data set [1] (oral, read-out: LD50 po), > 200 mg/kg. For the same compound, in data set [2], the ED50 was ~7 mg/kg.
On to `CCOC(=O)CC1N=C2CC(c3ccccc3)CN2C1=O` (stereo not shown) [Example 6], for which, in the data set with cardiovascular system, the “action on the blood pressure” value is given as “slight hypotensive action”. The LD50 is > 200 mg/kg in data set [1] (setting [4]) and > 200 mg/kg in data set [1] (oral, read-out: LD50 po). Besides, the 50% effective dose (ED50) in data set [2] was ~100 mg/kg.
As for `CCOC(=O)CCC1N=C2CC(c3ccccc3)CN2C1=O` (stereo not shown) [Example 7], the median lethal dose (LD50) in data set [1] (setting [4]) is > 200 mg/kg; in data set [1] (oral, read-out: LD50 po), > 200 mg/kg. Besides, the ED50 in data set [2] is ~30 mg/kg.
Take `CSCCC1N=C2CC(c3ccccc3)CN2C1=O` (stereo not shown) [Example 8]: the “action on the blood pressure” value with cardiovascular system is given as “slight hypotensive action”. For the same compound, the 50% lethal dose (LD50) in data set [1] (setting [4]) was > 200 mg/kg; in data set [1] (oral, read-out: LD50 po) it was > 200 mg/kg. In addition, in data set [2], the ED50 is ~30 mg/kg.
For the compound `CCOC(=O)C1N=C2CCC(c3ccccc3)CN2C1=O` (stereo not shown) [Example 12], the LD50 in data set [1] (setting [4]) is > 200 mg/kg; in data set [1] (oral, read-out: LD50 po), > 200 mg/kg. The ED50 in data set [2] was ~30 mg/kg.
As for `CCOC(=O)CCC1N=C2CCC(c3ccccc3)CN2C1=O` (stereo not shown) [Example 13], the LD50 is > 200 mg/kg in data set [1] (setting [4]) and > 200 mg/kg in data set [1] (oral, read-out: LD50 po). Moreover, in data set [2], the ED50 is ~30 mg/kg.
Turning to `O=C1CCN=C2CC(c3ccccc3)CN12` (stereo not shown) [Example 14], the LD50 was > 200 mg/kg in data set [1] (setting [4]) and > 200 mg/kg in data set [1] (oral, read-out: LD50 po). In addition, the ED50 in data set [2] was 5 mg/kg.
As for `O=C1CCN=C2CC(c3cc4ccccc4o3)CN12` (stereo not shown) [Example 15], the 50% lethal dose (LD50) in data set [1] (setting [4]) is > 200 mg/kg; in data set [1] (oral, read-out: LD50 po) it was > 200 mg/kg. The ED50 in data set [2] is ~33 mg/kg.
With `O=C1CCN=C2CCC(c3ccccc3)N12` (stereo not shown) [Example 17], the median lethal dose (LD50) in data set [1] (setting [4]) was > 200 mg/kg; in data set [1] (oral, read-out: LD50 po) it was > 200 mg/kg. Besides, in data set [2], the ED50 was < 100 mg/kg.
With `O=C1CCCN=C2CC(c3ccccc3)CN12` (stereo not shown) [Example 18], the LD50 in data set [1] (setting [4]) is > 200 mg/kg; in data set [1] (oral, read-out: LD50 po), > 200 mg/kg. In addition, in data set [2], the ED50 was < 33 mg/kg.

For the origin of these results see patent publication US4325954A, “Pyrrolopyrimidinones and pyrroloimidazolones and their compositions and therapeutic methods” (Laboratoires Jacques Logeais, priority 1979, dated 1982).
